Earlier results, collected in patent US20050221324A1, “Genotoxicity analysis” (priority 2002, published 2005).

Tested on: AL cells
Conditions: producing mainly chromosomal mutations; non-genotoxic carcinogens

## arsenic
  mutagenicity in AL cells: quite strong mutagens
